Data: US9913832B2, “Accelerating thrombus resolution through augmentation of p53 activity” (priority 2009, dated 2018)
Entries after “also recorded” stand apart in the source; their conditions may differ.

Assays:
experimental thrombi = conditions: literature studies of exogenous therapy on formed or established thrombus; cited from earlier work
normal (wildtype) mice = experiment: mouse model of thrombus resolution (vena caval ligation), normal mice; format: in vivo; conditions: 25 mg/kg body weight by daily injection, versus saline, FIG. 8
Text: In an effort to develop pharmacological and molecular therapy to accelerate thrombus resolution, the function of the p53 gene was studied in an in vivo model of thrombus resolution. In this mouse model (vena caval ligation) the thrombus shrinks between day 4 and day 12 by about 50% as defined by change in thrombus weight. It was noted that the expression of the p53 protein is increased in thrombus resolution.
In order to determine whether augmentation of normal p53 function could accelerate thombus resolution wildtype mice were treated with the p53 activator quinacrine (25 mg/kg body weight, by daily injection). Quinacrine is known to increase p53 levels by stabilizing the p53 protein and preventing its normal degradation inside cells.
(§1) The well-established rodent model of thrombus resolution was used to define a role for the p53 gene in this process. In this model, a mouse is anesthetized, the abdomen is opened with standard sterile surgical technique and the vena cava (the largest abdominal vein) is ligated in the abdomen with a suture immediately below the level of the renal veins.
The weight of the thrombus decreases with time, and this change in weight reflects the thrombus resolution process in this model. […]

[1] = system: mice lacking the p53 gene; experiment: mouse model of thrombus resolution (vena caval ligation), mice lacking the p53 gene; format: in vivo; conditions: quinacrine versus control, FIG. 9, last two columns
Text: To determine whether the beneficial effect on thrombus resolution of quinacrine was due to activation of the p53 gene and not some other unknown effect of quinacrine on thrombus resolution the quinacrine experiment was repeated in mice that lack p53 (FIG. 2).
as §1
To determine if pharmacologic activation of the p53 gene beyond its usual activation by thrombus resolution might accelerate thrombus resolution, normal mice were treated with the p53 activator quinacrine (25 mg/kg body weight, by daily injection) or saline as a control, and then subjected to vena caval ligation as described above. […] To determine if this effect of quinacrine was actually due to p53 activation, this experiment was repeated in animals lacking the p53 gene.

Molecule	thrombus resolution in experimental animal models (experimental thrombi)	thrombus resolution as determined by thrombus weight on day 12 (normal (wildtype) mice)	thrombus resolution / thrombus size at day 12 [1]
low molecular weight heparin	no improvement in the resolution of an established thrombus		
CCN(CC)CCCC(C)Nc1c2ccc(Cl)cc2nc2ccc(OC)cc12 (stereo not shown) [quinacrine]		improved thrombus resolution; also recorded: decreased thrombus weight	absent; also recorded: no difference in thrombus size
MCP-1: cytokine macrophage chemotactic factor	does improve experimental thrombus resolution		
